Data reported in patent publication US10864196B2, “Modulators of the integrated stress pathway” (Calico Life Sciences LLC, priority 2016, dated 2020).

Tested on: HEK293T cells carrying the ATF4 luciferase reporter
Assay: ATF4-Luc assay (in vitro model of VWMD)
Assay type: cell-based
Details: Homo sapiens, HEK-293T, 1 μg/mL tunicamycin, 7 hours, One Glo luminescence
Procedure: In order to test exemplary compounds of the invention in a cellular context, a stable VWMD cell line was first constructed. The ATF4 reporter was prepared by fusing the human full-length ATF4 5′-UTR (NCBI Accession No. BC022088.2) in front of the firefly luciferase (FLuc) coding sequence lacking the initiator methionine as described in Sidrauski et al (eLife 2013). The construct was used to produce recombinant retroviruses using standard methods and the resulting viral supernatant was used to transduce HEK293T cells, which were then subsequently selected with puromycin to generate a stable cell line.
HEK293T cells carrying the ATF4 luciferase reporter were plated on polylysine coated 384-well plates (Greiner Bio-one) at 30,000 cells per well. Cells were treated the next day with 1 μg/mL tunicamycin and 200 nM of a compound of Formula (I) for 7 hours. Luminescence was measured using One Glo (Promega) as specified by the manufacturer. Cells were maintained in DMEM with L-glutamine supplemented with 10% heat-inactivated FBS (Gibco) and Antibiotic-Antimycotic solution (Gibco).
Table 2 below summarizes the EC50 data obtained using the ATF4-Luc assay for exemplary compounds of the invention.

Compound | EC50 [nM]
O=C(COc1ccc(Cl)c(F)c1)NC12CC(c3nnc(COc4cnc5cc[nH]c5c4)o3)(C1)C2 [Compound 149, 2-(4-chloro-3-fluorophenoxy)-N-[3-(5-{[(1H-pyrrolo[3,2-b]pyridin-6-yl)oxy]methyl}-1,3,4-oxadiazol-2-yl)bicyclo[1.1.1]pentan-1-yl]acetamide] | 1000 to 2000
Cc1ccccc1Oc1nnc(C23CC(NC(=O)COc4ccc(Cl)c(F)c4)(C2)C3)o1 [Compound 134, 2-(4-chloro-3-fluorophenoxy)-N-{3-[5-(2-methylphenoxy)-1,3,4-oxadiazol-2-yl]bicyclo[1.1.1]pentan-1-yl}acetamide] | 250 to 1000
O=C(COc1ccc2c(c1)OC(F)(F)O2)NC12CC(c3nnc(COc4ccc(Cl)c(F)c4)o3)(C1)C2 [Compound 133, N-(3-{5-[(4-chloro-3-fluorophenoxy)methyl]-1,3,4-oxadiazol-2-yl}bicyclo-[1.1.1]pentan-1-yl)-2-[(2,2-difluoro-2H-1,3-benzodioxol-5-yl)oxy]acetamide] | < 50
O=C(COc1cccc(Cl)c1)NC12CC(c3nc(COc4ccc(Cl)cc4)no3)(C1)C2 [Compound 106, 2-(3-chlorophenoxy)-N-(3-{3-[(4-chlorophenoxy)methyl]-1,2,4-oxadiazol-5-yl}bicyclo[1.1.1]pentan-1-yl)acetamide] | 250 to 1000
COc1ccc(OCc2nnc(C34CC(NC(=O)COc5ccc(Cl)c(F)c5)(C3)C4)o2)c(C)n1 [Compound 151, 2-(4-chloro-3-fluorophenoxy)-N-[3-(5-{[(6-methoxy-2-methylpyridin-3-yl)oxy]methyl}-1,3,4-oxadiazol-2-yl)bicyclo[1.1.1]pentan-1-yl]acetamide] | 1000 to 2000
O=C(COc1ccc(Cl)c(F)c1)NC12CC(c3nnc(Oc4ccc(C5CC5)nc4)o3)(C1)C2 [Compound 121, 2-(4-chloro-3-fluorophenoxy)-N-(3-{5-[(6-cyclopropylpyridin-3-yl)oxy]-1,3,4-oxadiazol-2-yl}bicyclo[1.1.1]pentan-1-yl)acetamide] | 50 to 250
O=C(COc1ccc(Cl)c(F)c1)NC12CC(c3nnc(COc4cncc(F)c4)o3)(C1)C2 [Compound 140, 2-(4-chloro-3-fluorophenoxy)-N-[3-(5-{[(5-fluoropyridin-3-yl)oxy]methyl}-1,3,4-oxadiazol-2-yl)bicyclo[1.1.1]pentan-1-yl]acetamide] | 50 to 250
O=C(COc1ccc(Cl)c(F)c1)NC12CC(c3nnc(Oc4ccc(Cl)cc4)o3)(C1)C2 [Compound 128, 2-(4-chloro-3-fluorophenoxy)-N-{3-[5-(4-chlorophenoxy)-1,3,4-oxadiazol-2-yl]bicyclo[1.1.1]pentan-1-yl}acetamide] | < 50
O=C(COc1ccc(C(F)(F)F)nc1)NC12CC(c3nc(COc4ccc(Cl)cc4)no3)(C1)C2 [Compound 114, N-(3-{3-[(4-chlorophenoxy)methyl]-1,2,4-oxadiazol-5-yl}bicyclo[1.1.1]pentan-1-yl)-2-{[6-(trifluoromethyl)pyridin-3-yl]oxy}acetamide] | 250 to 1000
Cc1ncc(OCc2nnc(C34CC(NC(=O)COc5ccc(Cl)c(F)c5)(C3)C4)o2)cc1Cl [Compound 145, 2-(4-chloro-3-fluorophenoxy)-N-[3-(5-{[(5-chloro-6-methylpyridin-3-yl)oxy]methyl}-1,3,4-oxadiazol-2-yl)bicyclo[1.1.1]pentan-1-yl]acetamide] | 50 to 250
O=C(COc1ccc(Cl)c(F)c1)NC12CC(c3nnc(COc4ccc(C(F)(F)F)nc4)o3)(C1)C2 [Compound 141, 2-(4-chloro-3-fluorophenoxy)-N-{3-[5-({[6-(trifluoromethyl)pyridin-3-yl]oxy}methyl)-1,3,4-oxadiazol-2-yl]bicyclo[1.1.1]pentan-1-yl}acetamide] | 50 to 250
N#Cc1cccc(Oc2nnc(C34CC(NC(=O)COc5ccc(Cl)c(F)c5)(C3)C4)o2)c1 [Compound 129, 2-(4-chloro-3-fluorophenoxy)-N-{3-[5-(3-cyanophenoxy)-1,3,4-oxadiazol-2-yl]bicyclo[1.1.1]pentan-1-yl}acetamide] | 50 to 250
O=C(COc1ccc(Cl)c(F)c1)NC12CC(c3nc(COc4cnc(C(F)(F)F)c(Cl)c4)no3)(C1)C2 [Compound 162, 2-(4-chloro-3-fluorophenoxy)-N-{3-[3-({[5-chloro-6-(trifluoromethyl)pyridin-3-yl]oxy}methyl)-1,2,4-oxadiazol-5-yl]bicyclo[1.1.1]pentan-1-yl}acetamide] | 50 to 250
COCc1nnc([C@]23CC[C@](NC(=O)COc4ccc(Cl)c(F)c4)(CC2)CC3=O)o1 [Compound 164, 2-(4-chloro-3-fluorophenoxy)-N-{4-[5-(methoxymethyl)-1,3,4-oxadiazol-2-yl]-3-oxobicyclo[2.2.2]octan-1-yl}acetamide] | 250 to 1000
Cc1ccc(Oc2nnc(C34CC(NC(=O)COc5ccc(Cl)c(F)c5)(C3)C4)o2)cc1C [Compound 130, 2-(4-chloro-3-fluorophenoxy)-N-{3-[5-(3,4-dimethylphenoxy)-1,3,4-oxadiazol-2-yl]bicyclo[1.1.1]pentan-1-yl}acetamide] | 50 to 250
Cc1ccc(Oc2nnc(C34CC(NC(=O)COc5ccc(Cl)c(F)c5)(C3)C4)o2)cc1 [Compound 123, 2-(4-chloro-3-fluorophenoxy)-N-{3-[5-(4-methylphenoxy)-1,3,4-oxadiazol-2-yl]bicyclo[1.1.1]pentan-1-yl}acetamide] | 50 to 250
COc1ccc(Oc2nnc(C34CC(NC(=O)COc5ccc(Cl)c(F)c5)(C3)C4)o2)cn1 [Compound 120, 2-(4-chloro-3-fluorophenoxy)-N-(3-{5-[(6-methoxypyridin-3-yl)oxy]-1,3,4-oxadiazol-2-yl}bicyclo[1.1.1]pentan-1-yl)acetamide] | 50 to 250
O=C(COc1ccc(Cl)cc1)NC12CC(c3nc(COc4ccc(Cl)c(Cl)c4)no3)(C1)C2 [Compound 158, 2-(4-chlorophenoxy)-N-(3-{3-[(3,4-dichlorophenoxy)methyl]-1,2,4-oxadiazol-5-yl}bicyclo[1.1.1]pentan-1-yl)acetamide] | < 50
O=C(COc1ccc(Cl)c(F)c1)NC12CC(c3nnc(Oc4cccc(C(F)(F)F)c4)o3)(C1)C2 [Compound 139, 2-(4-chloro-3-fluorophenoxy)-N-(3-{5-[3-(trifluoromethyl)phenoxy]-1,3,4-oxadiazol-2-yl}bicyclo[1.1.1]pentan-1-yl)acetamide] | < 50
COc1ccccc1Oc1nnc(C23CC(NC(=O)COc4ccc(Cl)c(F)c4)(C2)C3)o1 [Compound 124, 2-(4-chloro-3-fluorophenoxy)-N-{3-[5-(2-methoxyphenoxy)-1,3,4-oxadiazol-2-yl]bicyclo[1.1.1]pentan-1-yl}acetamide] | > 2000
Cc1cc(OCC(=O)NC23CC(c4nc(COc5ccc(Cl)cc5)no4)(C2)C3)ccc1Cl [Compound 104, 2-(4-chloro-3-methylphenoxy)-N-(3-{3-[(4-chlorophenoxy)methyl]-1,2,4-oxadiazol-5-yl}bicyclo[1.1.1]pentan-1-yl)acetamide] | 250 to 1000
O=C(COc1ccc(Cl)c(F)c1)NC12CC(c3nc(COc4ccc(C5CC5)nc4)no3)(C1)C2 [Compound 163, 2-(4-chloro-3-fluorophenoxy)-N-[3-(3-{[(6-cyclopropylpyridin-3-yl)oxy]methyl}-1,2,4-oxadiazol-5-yl)bicyclo[1.1.1]pentan-1-yl]acetamide] | 250 to 1000
COc1ncc(OCc2nnc(C34CC(NC(=O)COc5ccc(Cl)c(F)c5)(C3)C4)o2)cc1C [Compound 155, 2-(4-chloro-3-fluorophenoxy)-N-[3-(5-{[(6-methoxy-5-methylpyridin-3-yl)oxy]methyl}-1,3,4-oxadiazol-2-yl)bicyclo[1.1.1]pentan-1-yl]acetamide] | 250 to 1000
O=C(COc1ccc(Cl)c(F)c1)NC12CC(c3nnc(Oc4ccc(C(F)(F)F)cc4)o3)(C1)C2 [Compound 131, 2-(4-chloro-3-fluorophenoxy)-N-(3-{5-[4-(trifluoromethyl)phenoxy]-1,3,4-oxadiazol-2-yl}bicyclo[1.1.1]pentan-1-yl)acetamide] | < 50
Cc1ccc(OCC(=O)NC23CC(c4nc(COc5ccc(Cl)cc5)no4)(C2)C3)cc1 [Compound 103, N-(3-{3-[(4-chlorophenoxy)methyl]-1,2,4-oxadiazol-5-yl}bicyclo[1.1.1]pentan-1-yl)-2-(4-methylphenoxy)acetamide] | 50 to 250
O=C(COc1ccc(Cl)c(F)c1)NC12CC(c3nnc(COc4ccc(Cl)c(F)c4)o3)(C1)C2 [Compound 115, 2-(4-chloro-3-fluorophenoxy)-N-(3-{5-[(4-chloro-3-fluorophenoxy)methyl]-1,3,4-oxadiazol-2-yl}bicyclo[1.1.1]pentan-1-yl)acetamide] | < 50
O=C(COc1ccc(Cl)c(F)c1)NC12CCC(c3nc(COc4ccnc(C(F)(F)F)c4)no3)(CC1)C(O)C2 (stereo not shown) [Compound 167, 2-(4-chloro-3-fluorophenoxy)-N-{3-hydroxy-4-[3-({[2-(trifluoromethyl)pyridin-4-yl]oxy}methyl)-1,2,4-oxadiazol-5-yl]bicyclo[2.2.2]octan-1-yl}acetamide] | 50 to 250
O=C(COc1ccc(Cl)c(F)c1)NC12CC(c3nc(COc4cncc(C(F)(F)F)c4)no3)(C1)C2 [Compound 159, 2-(4-chloro-3-fluorophenoxy)-N-{3-[3-({[5-(trifluoromethyl)pyridin-3-yl]oxy}methyl)-1,2,4-oxadiazol-5-yl]bicyclo[1.1.1]pentan-1-yl}acetamide] | 50 to 250
